According to ChEMBL document CHEMBL1149740, “New phenolic glucosides from the leaves of Eurya tigang” (J Nat Prod, 1992):
Values after ≈ are worked out from the molar mass of the structure shown.

Columns and labels:
T-24 = assay: Antitumor activity against human T24 cells; assay type: functional, cell-based
[1] = Antitumor activity against mouse keratinocytes; assay type: cell-based; conditions: Keratinocyte

IC50 (T-24) [µg/mL]	IC50 [1] [µg/mL]	Structure (SMILES)
28.7 (≈ 64.3 µM)	9.2 (≈ 20.6 µM)	O=C(/C=C/c1ccc(O)cc1)OC[C@H]1O[C@@H](OCCc2ccc(O)cc2)[C@H](O)[C@@H](O)[C@@H]1O [EUTIGOSIDE A]
31.9 (≈ 69 µM)	9.4 (≈ 20.3 µM)	O=C1C=CC(O)(CCO[C@@H]2O[C@H](COC(=O)/C=C/c3ccc(O)cc3)[C@@H](O)[C@H](O)[C@H]2O)C=C1 [EUTIGOSIDE B]
29.3 (≈ 65.6 µM)	12.6 (≈ 28.2 µM)	O=C1C=CC(O)(CCO[C@@H]2O[C@H](COC(=O)/C=C/c3ccccc3)[C@@H](O)[C@H](O)[C@H]2O)C=C1 [EUTIGOSIDE C]
